≈ marks a conversion by molar mass, not a printed value. Read-outs that look alike come from different tables or passages of the source.
Assays:
[1] = tested on: Streptococcus pneumoniae 1/1; assay: MIC against Streptococcus pneumoniae 1/1; format: cell-based; conditions: Streptococcus pneumoniae 1/1, trimethoprim- and penicillin-resistant, serotype 6, clinical isolate; for MIC: read-out: MIC Sp1/1
[2] = tested on: Staphylococcus aureus 101; assay: MIC against Staphylococcus aureus 101; format: cell-based; conditions: Staphylococcus aureus 101, MRSA- and trimethoprim-resistant, clinical isolate; for MIC: read-out: MIC Sa101
[3] = target: T1, purified DHFR of strain Sp1/1 of Streptococcus pneumoniae (Streptococcus pneumoniae serotype 4, UniProt Q54801); format: biochemical; conditions: IC50 against purified DHFR of strain Sp1/1
T1 sequence (Q54801 1-168 I100L): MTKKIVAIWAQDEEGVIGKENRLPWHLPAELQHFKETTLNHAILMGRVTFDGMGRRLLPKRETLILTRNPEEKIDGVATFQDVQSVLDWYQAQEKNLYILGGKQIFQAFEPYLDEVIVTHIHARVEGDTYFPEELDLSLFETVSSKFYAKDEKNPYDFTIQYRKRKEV

[4] = target: purified DHFR of strain 157/4696 of Staphylococcus aureus (Staphylococcus aureus, UniProt P13955); assay: biochemical
purified DHFR of strain 157/4696 of Staphylococcus aureus, sequence (P13955 whole entry): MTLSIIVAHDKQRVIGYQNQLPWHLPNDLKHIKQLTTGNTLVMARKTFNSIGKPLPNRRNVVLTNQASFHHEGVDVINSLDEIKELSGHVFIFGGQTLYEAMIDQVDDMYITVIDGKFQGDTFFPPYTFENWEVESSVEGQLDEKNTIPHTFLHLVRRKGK

[5] = Table 2, IC50 against purified DHFR of strain 157/4696 (highly trimethoprim-resistant; clinical isolate), read-out: DHFR Sa1

## CCOc1cc(Cc2cnc(N)nc2N)cc(OS(=O)(=O)C(C)C)c1-c1ccc(OC(C)=O)cc1 [Example 58-, 4′-(2,4-Diamino-pyrimidin-5-ylmethyl)-6′-ethoxy-2′-(propane-2-sulphonyloxy)-biphenyl-4-yl acetate]
[1]; Table 2
  MIC: 2 µg/mL
[2]; Table 2
  MIC: 2 µg/mL
[3]; Table 2
  IC50: 32 nM
[4]
  IC50: 55 nM

## CCOc1cc(Cc2cnc(N)nc2N)cc(OCC)c1-c1ccc(CNCC(F)(F)F)cc1 [Example 04-v, 5-[2,6-Diethoxy-4′-[(2,2,2-trifluoroethylamino)-methyl]-biphenyl-4-ylmethyl]-pyrimidine-2,4-diamine]
[1]; Table 2
  MIC: 4 µg/mL (≈ 8.41 µM)
[2]; Table 2
  MIC: 8 µg/mL (≈ 16.8 µM)
[3]; Table 2
  IC50: 150 nM
[4]
  IC50: 1300 nM

## CCOc1cc(Cc2cnc(N)nc2N)cc(OCC(F)(F)F)c1-c1ccc(O)cc1 [Example 08-s]
[1]; Table 2
  MIC: 2 µg/mL (≈ 4.6 µM)
[2]; Table 2
  MIC: 4 µg/mL (≈ 9.21 µM)
[3]; Table 2
  IC50: 31 nM
[4]
  IC50: 3700 nM

## CCCS(=O)(=O)Oc1cc(Cc2cnc(N)nc2N)cc(OCC)c1-c1ccc(CN2CCOCC2)c(N)c1 [Example 32-a, Pronane-1-sulophonic acid 3′-amino-4-(2,4-diamino-pyrimidin-5-ylmethyl)-6-ethoxy-4′-morpholinemethyl-4-ylmethyl-biphenyl-2-yl ester]
[1]; Table 2
  MIC Sp1/1: 1 µg/mL (≈ 1.8 µM)
[2]; Table 2
  MIC Sa101: 4 µg/mL (≈ 7.19 µM)
[3]; Table 2
  IC50: 4.6 nM
[4]; [5]
  IC50: 120 nM

## CCOc1cc(Cc2cnc(N)nc2N)cc(OCC)c1-c1cccc(N(C)C)c1 [Example 02-y, 5-(3′-Dimethylamino-2,6-diethoxy-biphenyl-4-ylmethyl)-pyrimidine-2,4-diamine]
[1]; Table 2
  MIC: 4 µg/mL (≈ 9.82 µM)
[2]; Table 2
  MIC: 8 µg/mL (≈ 19.6 µM)
[3]; Table 2
  IC50: 150 nM
[4]
  IC50: 800 nM

## CCOc1cc(Cc2cnc(N)nc2N)cc(OS(=O)(=O)C(C)C)c1-c1ccc(C)nc1 [Example 33-g, Propane-2-sulphonic acid 5-(2,4-diamino-pyrimidin-5-ylmethyl)-3-ethoxy-2-(6-methyl-pyridin-3-yl)-phenyl ester]
[1]; Table 2
  MIC: 8 µg/mL (≈ 17.5 µM)
[2]; Table 2
  MIC: 4 µg/mL (≈ 8.74 µM)
[3]; Table 2
  IC50: 76 nM
[4]
  IC50: 980 nM

## CCOc1cc(Cc2cnc(N)nc2N)cc(OCC)c1-c1ccc(C=O)cc1 [Example 02-ag, 4′-(2,4-Diamino-pyrimidin-5-ylmetyl)-2′,6′-diethoxy-biphenyl-4-carbaldehyde]
[1]; Table 2
  MIC: 8 µg/mL (≈ 20.4 µM)
[2]; Table 2
  MIC: 8 µg/mL (≈ 20.4 µM)
[3]; Table 2
  IC50: 130 nM
[4]
  IC50: 2200 nM

## CCOc1cc(Cc2cnc(N)nc2N)cc(OCC)c1-c1ccc(NS(C)(=O)=O)cc1 [Example 04-b, N-[4′-(2,4-Diamino-pyrimidin-5-ylmethyl)-2′,6′-diethoxy-biphenyl-4-yl]-methanesulphonamide]
[1]; Table 2
  MIC: 2 µg/mL (≈ 4.37 µM)
[2]; Table 2
  MIC: 8 µg/mL (≈ 17.5 µM)
[3]; Table 2
  IC50: 36 nM
[4]
  IC50: 1700 nM

## CCCS(=O)(=O)Oc1cc(Cc2cnc(N)nc2N)cc(OCC)c1-c1ccc(N)c(C)c1 [Example 32-b]
[1]; Table 2
  MIC Sp1/1: 1 µg/mL (≈ 2.12 µM)
[2]; Table 2
  MIC Sa101: 4 µg/mL (≈ 8.48 µM)
[3]; Table 2
  IC50: 4.2 nM
[4]; [5]
  IC50: 160 nM

## CCOc1cc(Cc2cnc(N)nc2N)cc(OCC)c1-c1cccc(NC(C)=O)c1 [Example 05-c, N-[4′-(2,4-Diamino-pyrimidin-5-ylmethyl)-2′,6′-diethoxy-biphenyl-3-yl]-acetamide]
[1]; Table 2
  MIC: 4 µg/mL (≈ 9.49 µM)
[2]; Table 2
  MIC: 8 µg/mL (≈ 19 µM)
[3]; Table 2
  IC50: 30 nM
[4]
  IC50: 2600 nM

## CCOc1cc(Cc2cnc(N)nc2N)cc(OS(=O)(=O)N2CCOCC2)c1-c1ccc(O)cc1 [Example 20-d, Morpholine-4-sulphonic acid 4-(2,4-diamino-pyrimidin-5-ylmethyl)-6-ethoxy-4′-hydroxy-biphenyl-2-yl ester]
[1]; Table 2
  MIC: 1 µg/mL (≈ 1.99 µM)
[2]; Table 2
  MIC: 8 µg/mL (≈ 16 µM)
[3]; Table 2
  IC50: 5.8 nM
[4]
  IC50: 95 nM

## CCOc1cc(Cc2cnc(N)nc2N)cc(OS(=O)(=O)C(C)CC)c1-c1ccc(N)cc1 (stereo not drawn) [Example 35a, Butane-2-sulphonic acid 4′-amino-4-(2,4-diamino-pyrimidin-5-ylmethyl)-6ethoxy-biphenyl-2-yl ester]
[1]; Table 1
  MIC: 0.5 µg/mL (≈ 1.06 µM)
[2]; Table 1
  MIC: 2 µg/mL (≈ 4.24 µM)
[3]; Table 1
  IC50: 3.7 nM
[4]
  IC50: 110 nM

## CCOc1cc(Cc2cnc(N)nc2N)cc(OCCc2ccccn2)c1-c1cccc(N)c1 [Example 07-g, 5-[3′-Amino-6-ethoxy-2-(2-pyridin-2-yl-ethoxy)-biphenyl-4-ylmethyl]-pyrimidine-2,4-diamine]
[1]; Table 2
  MIC: 8 µg/mL (≈ 17.5 µM)
[2]; Table 2
  MIC: 8 µg/mL (≈ 17.5 µM)
[3]; Table 2
  IC50: 30 nM
[4]
  IC50: 650 nM

## CCOc1cc(Cc2cnc(N)nc2N)cc(OS(=O)(=O)CC(C)C)c1-c1ccc(OCCO)cc1 [Example 61-a, 2-Methyl-propane-1-sulphonic acid 4-(2,4-diamino-pyrimidin-5-ylmethyl)-6-ethoxy-4′-(2-hydroxy-ethoxy)-biphenyl-2-yl ester]
[1]; Table 2
  MIC: 0.5 µg/mL (≈ 0.968 µM)
[2]; Table 2
  MIC: 2 µg/mL (≈ 3.87 µM)
[3]; Table 2
  IC50: 1.8 nM
[4]
  IC50: 550 nM

## CCOc1cc(Cc2cnc(N)nc2N)cc(OCC)c1-c1ccc(CN2CCOCC2)s1 [Example 02-ac, 5-f3,5-Diethoxy-4-(5-morpholin-4-ylmethyl-thiophen-2-yl)-benzyl-pyrimidine-2,4-diamine]
[1]; Table 2
  MIC: 2 µg/mL (≈ 4.26 µM)
[2]; Table 2
  MIC: 8 µg/mL (≈ 17 µM)
[3]; Table 2
  IC50: 65 nM
[4]
  IC50: 650 nM

## CCOc1cc(Cc2cnc(N)nc2N)cc(OS(=O)C(C)(C)C)c1-c1ccc(O)cc1 (stereo not drawn) [Example 15-i, 2-Methyl-propane-2-sulphinic acid 4-(2,4-diamino-pyrimidin-5-ylmethyl)-6-ethoxy-4′-hydroxy-biphenyl-2-yl ester]
[1]; Table 2
  MIC: 4 µg/mL (≈ 8.76 µM)
[2]; Table 2
  MIC: 2 µg/mL (≈ 4.38 µM)
[3]; Table 2
  IC50: 22 nM
[4]
  IC50: 81 nM

## CCOc1cc(Cc2cnc(N)nc2N)cc(OCC)c1-c1ccc(CO)s1 [Example 02-ab, [5-[4-(2,4-Diamino-pyrimidin-5-ylmethyl)-2,6-diethoxy-phenyl]-thiophen-2-yl]-methanol]
[1]; Table 2
  MIC: 2 µg/mL (≈ 4.99 µM)
[2]; Table 2
  MIC: 4 µg/mL (≈ 9.99 µM)
[3]; Table 2
  IC50: 38 nM
[4]
  IC50: 880 nM

## CCOc1cc(Cc2cnc(N)nc2N)cc(OS(=O)(=O)N(C)C2CC2)c1-c1cccc(N)c1 [Example 19-g, N-Cclopropyl-N-methyl-sulphamic acid 3′-amino-4-(2,4-diamino-Ryrimidin-5-ylmethyl)-6-ethoxy-biphenyl-2-yl ester]
[1]; Table 2
  MIC: 1 µg/mL (≈ 2.06 µM)
[2]; Table 2
  MIC: 1 µg/mL (≈ 2.06 µM)
[3]; Table 2
  IC50: 6.8 nM
[4]
  IC50: 56 nM

## CCOc1cc(Cc2cnc(N)nc2N)cc(OCC)c1-c1ccc(N(C)C)cc1 [Example 02-v, 5-(4′-Dimethylamino-2,6-diethoxy-biphenyl-4-ylmethyl)-pyrimidine-2,4-diamine]
[1]; Table 2
  MIC: 4 µg/mL (≈ 9.82 µM)
[2]; Table 2
  MIC: 8 µg/mL (≈ 19.6 µM)
[3]; Table 2
  IC50: 110 nM
[4]
  IC50: 10000 nM

## CCOc1cc(Cc2cnc(N)nc2N)cc(OCC2CC2)c1-c1cccc(O)c1 [Example 54-, 2′-Cyclopropanomethoxy-4′-(2,4-diamino-pyrimidin-5-ylmethyl)-6′-ethoxy-biphenyl-3-ol]
[1]; Table 2
  MIC: 2 µg/mL (≈ 4.92 µM)
[2]; Table 2
  MIC: 8 µg/mL (≈ 19.7 µM)
[3]; Table 2
  IC50: 19 nM
[4]
  IC50: 3100 nM

## CCOc1cc(Cc2cnc(N)nc2N)cc(OCC)c1-c1cnc(CN2CCOCC2)nc1 [Example 04-x, 5-[3,5-Diethoxy-4-(2-morpholin-4-ylmethyl-pyrimidin-5-yl)-benzyl]-pyrimidine-2,4-diamine]
[1]; Table 2
  MIC: 8 µg/mL (≈ 17.2 µM)
[2]; Table 2
  MIC: 8 µg/mL (≈ 17.2 µM)
[3]; Table 2
  IC50: 80 nM
[4]
  IC50: 7900 nM

## CCOc1cc(Cc2cnc(N)nc2N)cc(OCC)c1-c1ccc(O)c(F)c1 [Example 02-ae, 4′-(2,4-Diamino-pyrimidin-5-ylmethyl)-2′,6′-diethoxy-3-fluoro-biphenyl-4-ol]
[1]; Table 2
  MIC: 8 µg/mL (≈ 20.1 µM)
[2]; Table 2
  MIC: 4 µg/mL (≈ 10 µM)
[3]; Table 2
  IC50: 150 nM
[4]
  IC50: 1600 nM

## CCOc1cc(Cc2cnc(N)nc2N)cc(OCC2CC2)c1-c1ccc(OS(C)(=O)=O)cc1 [Example 57-, Methanesulphonic acid 2′-cylopropylmethoxy-4′-(2,4-diamino-pyrimidin-5-ylmethyl)-6′-ethoxy-biphenyl-4-yl ester]
[1]; Table 2
  MIC: 4 µg/mL (≈ 8.25 µM)
[2]; Table 2
  MIC: 8 µg/mL (≈ 16.5 µM)
[3]; Table 2
  IC50: 30 nM
[4]
  IC50: 3600 nM

## CCOc1cc(Cc2cnc(N)nc2N)cc(OCC)c1-c1cccc(S(C)(=O)=O)c1 [Example 02-af, 5-(2,6-Diethoxy-3′-methylsulphonyl-biphenyl-4-ylmethyl)-pyrimidine-2,4-diamine]
[1]; Table 2
  MIC: 8 µg/mL (≈ 18.1 µM)
[2]; Table 2
  MIC: 8 µg/mL (≈ 18.1 µM)
[3]; Table 2
  IC50: 85 nM
[4]
  IC50: 1800 nM

## CCOc1cc(Cc2cnc(N)nc2N)cc(O[C@@H]2CCC[C@H]2OC)c1-c1ccc(O)cc1 (relative stereo) [Example 08-y, 5-[6-Ethoxy-2((trans)-2-methoxy-cyclopentyloxy)-4′-hydroxy-biphenyl-4-ylmethtl]-pyrimidine-2,4-diamine]
[1]; Table 2
  MIC: 4 µg/mL (≈ 8.88 µM)
[2]; Table 2
  MIC: 8 µg/mL (≈ 17.8 µM)
[3]; Table 2
  IC50: 95 nM
[4]
  IC50: 2700 nM

## CCOc1cc(Cc2cnc(N)nc2N)cc(OS(C)(=O)=O)c1-c1ccc(CN2CCOCC2)c(F)c1 [Example 64-a, Methanesulphonic acid 4-(2,4-diamino-pyrimidin-5-ylmethyl)-6-ethoxy-3′-fluoro-4′-morpholin-4-ylmethyl-biphenyl-2-yl ester]
[1]; Table 2
  MIC: 4 µg/mL (≈ 7.52 µM)
[2]; Table 2
  MIC: 8 µg/mL (≈ 15 µM)
[3]; Table 2
  IC50: 52 nM
[4]
  IC50: 1500 nM

## CCOc1cc(Cc2cnc(N)nc2N)cc(OCC(C)(C)CO)c1-c1ccc(O)cc1 [Example 08-p]
[1]; Table 2
  MIC: 4 µg/mL (≈ 9.12 µM)
[2]; Table 2
  MIC: 8 µg/mL (≈ 18.2 µM)
[3]; Table 2
  IC50: 20 nM
[4]
  IC50: 800 nM

Reference: US6821980B1, “Substituted 5-benzyl-2,4-diaminopyrimidines” (Basilea Pharmaceutica AG, priority 1999, dated 2004)
